Series [1] has as its target T1, human adenosine A2A receptor (Homo sapiens, UniProt P29274).
T1 construct: expressed in transfected cells; host or cells: CHO cells, Semliki Forest virus expression system; membrane preparation
Kind of series: [3H]-SCH-58261 binding assay, human adenosine A2A receptor. Particulars: human A2A receptor recombinantly expressed in CHO cell membranes; [3H]-SCH-58261 1 nM; Ki from IC50 by Cheng-Prussoff equation; read-out: Ha2 (pKi) (converted). As to the method:
Human Adenosine A2A Receptor
The human adenosine A2A receptor was recombinantly expressed in chinese hamster ovary (CHO) cells using the semliki forest virus expression system. Cells were harvested, washed twice by centrifugation, homogenized and again washed by centrifugation. The final washed membrane pellet was suspended in a Tris (50 mM) buffer containing 120 mM NaCl, 5 mM KCl, 2 mM CaCl2 and 10 mM MgCl2 (pH 7.4) (buffer A). The [^3H]-SCH-58261 (Dionisotti et al., […], Br J Pharmacol 121, 353; 1 nM) binding assay was carried out in 96-well plates in the presence of 2.5 μg of membrane protein, 0.5 mg of Ysi-poly-1-lysine SPA beads and 0.1 U adenosine deaminase in a final volume of 200 μl of buffer A. Non-specific binding was defined using xanthine amine congener (XAC; 2 μM). Compounds were tested at 10 concentrations from 10 μM-0.3 nM. All assays were conducted in duplicate and repeated at least two times. Assay plates were incubated for 1 hour at room temperature before centrifugation and then bound ligand determined using a Packard Topcount scintillation counter. IC50 values were calculated using a non-linear curve fitting program and Ki values calculated using the Cheng-Prussoff equation.

From patent publication US7371748B2, “Benzothiazole derivatives” (Hoffman-La Roche Inc., priority 2003, dated 2008) come the findings set out here.

T1 sequence (P29274 whole entry): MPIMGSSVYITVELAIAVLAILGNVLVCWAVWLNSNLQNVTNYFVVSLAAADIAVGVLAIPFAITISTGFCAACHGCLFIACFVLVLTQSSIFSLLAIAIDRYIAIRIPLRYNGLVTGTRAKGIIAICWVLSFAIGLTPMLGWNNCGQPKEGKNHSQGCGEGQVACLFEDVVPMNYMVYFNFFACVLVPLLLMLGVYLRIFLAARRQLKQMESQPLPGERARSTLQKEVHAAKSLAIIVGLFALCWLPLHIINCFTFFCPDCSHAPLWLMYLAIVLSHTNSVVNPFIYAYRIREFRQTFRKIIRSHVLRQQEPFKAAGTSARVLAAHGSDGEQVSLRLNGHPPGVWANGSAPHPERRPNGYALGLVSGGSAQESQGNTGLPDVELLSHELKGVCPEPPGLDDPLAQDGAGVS

Take `COc1ccc(C2CCOCC2)c2sc(NC(=O)N(C)C3CCOCC3)nc12` [Example 24, 3-[4-Methoxy-7-(tetrahydro-pyran-4-yl)-benzothiazol-2-yl]-1-methyl-1-(tetrahydro-pyran-4-yl)-urea]: the melting point was in the range of 237 to 238 °C. The Ki in series [1] was 3.16 nM.
Compound `COc1ccc(C2CCOCC2)c2sc(NC(=O)N3CCC(C)(O)CC3)nc12` [Example 30, 4-Hydroxy-4-methyl-piperidine-1-carboxylic acid [4-methoxy-7-(tetrahydro-pyran-4-yl)-benzothiazol-2-yl]-amide] had a melting point of 90 to 95 °C. In series [1], the Ki is 1.26 nM.
For `COc1ccc(C2CCOCC2)c2sc(NC(=O)N3C[C@@H]4C[C@H]3CO4)nc12` [Example 31, (1S,4S)-2-Oxa-5-aza-bicyclo[2.2.1]heptane-5-carboxylic acid [4-methoxy-7-(tetrahydro-pyran-4-yl)-benzothiazol-2-yl]-amide], the melting point fell in the range of 193 to 197 °C. In addition, the Ki in series [1] was 1.26 nM.
Compound `COc1ccc(C2CCOCC2)c2sc(NC(=O)N3CC4CCC3CC4)nc12` [Example 32, 2-Aza-bicyclo[2.2.2]octane-2-carboxylic acid [4-methoxy-7-(tetrahydro-pyran-4-yl)-benzothiazol-2-yl]-amide] showed a melting point of 237 to 239 °C. The Ki in series [1] was 2 nM.
The compound `COc1ccc(C2CCOCC2)c2sc(NC(=O)CC3CCOCC3)nc12` [Example 33, N-[4-Methoxy-7-(tetrahydro-pyran-4-yl)-benzothiazol-2-yl]-2-(tetrahydro-pyran-4-yl)-acetamide] gave a melting point of 218 to 220 °C. The Ki in series [1] was 1.58 nM.
The compound `COc1ccc(C2CCOCC2)c2sc(NC(=O)c3ccnc(CN4CCOCC4)c3)nc12` [Example 34, N-[4-Methoxy-7-(tetrahydro-pyran-4-yl)-benzothiazol-2-yl]-2-morpholin-4-ylmethyl-isonicotinamide] came in with a melting point of 199 to 201 °C. Moreover, the Ki in series [1] is 2 nM.
Turning to `COCCNCc1cc(C(=O)Nc2nc3c(OC)ccc(C4CCOCC4)c3s2)ccn1` [Example 35, 2-[(2-Methoxy-ethylamino)-methyl]-N-[4-methoxy-7-(tetrahydro-pyran-4-yl)-benzothiazol-2-yl]-isonicotinamide], the melting point lay in the range of 93 to 95 °C. For the same compound, the Ki in series [1] is 1.58 nM.
As to `COc1ccc(C2CCOCC2)c2sc(NC(=O)C[C@H]3CC[C@H](O)CC3)nc12` [Example 50, (trans)-2-(4-Hydroxy-cyclohexyl)-N-[4-methoxy-7-(tetrahydro-pyran-4-yl)-benzothiazol-2-yl]-acetamide], the melting point fell in the range of 120 to 145 °C. In addition, the Ki in series [1] was 2.51 nM.
The corresponding values for `COc1ccc(C2CCOCC2)c2sc(NC(=O)N3CCC(CO)CC3)nc12` [Example 52, 4-Hydroxymethyl-piperidine-1-carboxylic acid [4-methoxy-7-(tetrahydro-pyran-4-yl)-benzothiazol-2-yl]-amide] are 202 to 203.5 °C and 1 nM.

By melting point is commonly meant the temperature, or range, at which the solid turns liquid.
